Measurements from ChEMBL document CHEMBL1131513, “SAR studies of diaryltriazoles against bacterial two-component regulatory systems and their antibacterial activities” (Bioorg Med Chem Lett, 1998).
≈ marks a conversion by molar mass, not a printed value.

Assays:
[1] = target: T1, KinA/Spo0F (sporulation kinase A/sporulation initiation phosphotransferase F) (Bacillus subtilis (strain 168), UniProt P06628+P16497); experiment: Ability to inhibit autophosphorylation of KinA/Sp0F assay; type: protein assay
T1 sequence (P06628 whole entry): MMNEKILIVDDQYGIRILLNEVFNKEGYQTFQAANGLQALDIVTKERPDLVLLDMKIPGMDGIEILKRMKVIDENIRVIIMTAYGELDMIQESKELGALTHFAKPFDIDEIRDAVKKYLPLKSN
T1 sequence (P16497 whole entry): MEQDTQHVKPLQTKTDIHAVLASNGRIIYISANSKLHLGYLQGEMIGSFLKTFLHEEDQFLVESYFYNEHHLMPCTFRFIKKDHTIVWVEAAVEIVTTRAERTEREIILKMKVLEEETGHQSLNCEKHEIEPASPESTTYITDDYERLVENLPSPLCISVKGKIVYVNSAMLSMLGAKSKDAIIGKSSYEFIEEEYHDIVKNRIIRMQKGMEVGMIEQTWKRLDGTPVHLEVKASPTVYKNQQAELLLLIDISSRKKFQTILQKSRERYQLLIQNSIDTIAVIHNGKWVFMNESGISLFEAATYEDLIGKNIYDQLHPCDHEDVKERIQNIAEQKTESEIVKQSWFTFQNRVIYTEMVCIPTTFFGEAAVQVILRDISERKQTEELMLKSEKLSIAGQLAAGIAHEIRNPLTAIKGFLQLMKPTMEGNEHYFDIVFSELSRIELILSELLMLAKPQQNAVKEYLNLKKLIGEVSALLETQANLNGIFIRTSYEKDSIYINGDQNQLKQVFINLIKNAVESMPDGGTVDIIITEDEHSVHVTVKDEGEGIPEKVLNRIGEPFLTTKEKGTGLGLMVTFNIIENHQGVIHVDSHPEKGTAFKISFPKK

[2] = tested on: Bacteria; experiment: Minimum inhibitory concentration for Gram-positive antibacterial activity by using standard MIC broth assay method; 0.25-0.5; type: functional
[3] = (§1) Inhibition of NRII and/or NRI phosphorylation in Escherichia coli
[4] = Ratio of NRII-NRI to KinA-Spo0F IC50s
[5] = tested on: Bacteria; experiment: Minimum inhibitory concentration for Gram-positive antibacterial activity by using standard MIC broth assay method; type: functional
[6] = tested on: Bacteria; experiment: Minimum inhibitory concentration for Gram-positive antibacterial activity by using standard MIC broth assay method; 0.5-2; type: functional
[7] = tested on: Bacteria; experiment: Minimum inhibitory concentration for Gram-positive antibacterial activity by using standard MIC broth assay method; 4-8; type: functional
[8] = as §1; type: functional
[9] = tested on: Bacteria; experiment: Minimum inhibitory concentration for Gram-positive antibacterial activity by using standard MIC broth assay method; 8-16; type: functional
[10] = tested on: Bacteria; experiment: Minimum inhibitory concentration for Gram-positive antibacterial activity by using standard MIC broth assay method; 0.1-0.5; type: functional
[11] = tested on: Bacteria; experiment: Minimum inhibitory concentration for Gram-positive antibacterial activity by using standard MIC broth assay method; 0.5-1; type: functional
[12] = tested on: Bacteria; experiment: Minimum inhibitory concentration for Gram-positive antibacterial activity by using standard MIC broth assay method; 0.25-1; type: functional

SMILES | IC50 [1] [µM] | Ratio [4] | further results
Oc1c(Cl)cccc1-c1n[nH]c(-c2ccc(Cl)c(Cl)c2)n1 | > 500 |  | 
Oc1c(Cl)cc(Cl)cc1-c1n[nH]c(-c2ccc(Cl)c(Cl)c2)n1 | 67 | 2.2 | MIC [2]: 0.25 µg/mL (≈ 0.667 µM); IC50 [3]: 150 µM
CC(C)c1ccc(-c2n[nH]c(-c3cc(Cl)cc(Cl)c3O)n2)cc1 | > 500 |  | 
Oc1ccc(Cl)cc1-c1n[nH]c(-c2ccc(Cl)c(Cl)c2)n1 | > 500 |  | MIC [5]: > 32 µg/mL
Oc1c(Cl)cc(Cl)cc1-c1n[nH]c(-c2ccc(Cl)cc2)n1 | 80 | 0.71 | IC50 [3]: 57 µM; MIC [6]: 0.5 µg/mL (≈ 1.47 µM)
Cc1ccc(-c2n[nH]c(-c3cc(Cl)cc(Cl)c3O)n2)cc1C | > 500 |  | MIC [7]: 4 µg/mL (≈ 12 µM)
O=[N+]([O-])c1cc(-c2n[nH]c(-c3ccc(Cl)c(Cl)c3)n2)c(O)c([N+](=O)[O-])c1 | 8 | 3.5 | MIC [5]: > 64 µg/mL; IC50 [8]: 28 µM
NS(=O)(=O)c1ccc(O)c(-c2n[nH]c(-c3ccc(Cl)c(Cl)c3)n2)c1 | 91 |  | MIC [9]: 8 µg/mL (≈ 20.8 µM)
Oc1c(Br)cc(Br)cc1-c1n[nH]c(-c2ccc(Oc3ccccc3)cc2)n1 | 100 | 0.75 | IC50 [3]: 75 µM
Oc1c(Cl)cc(Cl)cc1-c1n[nH]c(-c2ccccc2)n1 | 380 |  | 
Oc1c(Br)cc(Br)cc1-c1n[nH]c(-c2ccc(Cl)c(Cl)c2)n1 | 24 |  | MIC [2]: 0.25 µg/mL (≈ 0.539 µM)
COc1ccc(-c2n[nH]c(-c3cc(Cl)cc(Cl)c3O)n2)cc1 | > 500 |  | 
O=C(Nc1ccc(Cl)c(Cl)c1)c1cc(Cl)cc(Cl)c1O [3,3',4',5-TETRACHLOROSALICYLANILIDE] | 37 |  | MIC [10]: 0.1 µg/mL (≈ 0.285 µM)
Oc1c(Cl)cc(Cl)cc1-c1n[nH]c(-c2cccc(Cl)c2)n1 | 87 | 1.5 | MIC [11]: 0.5 µg/mL (≈ 1.47 µM); IC50 [3]: 130 µM
O=[N+]([O-])c1ccc(-c2nc(-c3cc(Cl)cc(Cl)c3O)n[nH]2)cc1 | > 500 |  | 
CC(C)(C)c1cc(-c2n[nH]c(-c3ccc(Cl)c(Cl)c3)n2)c(O)c(C(C)(C)C)c1 | > 500 |  | 
Oc1c(-c2n[nH]c(-c3ccc(Cl)c(Cl)c3)n2)cc(C(F)(F)F)cc1C(F)(F)F | 44 |  | MIC [12]: 0.25 µg/mL (≈ 0.565 µM)
Oc1c(Cl)cc(Cl)cc1-c1n[nH]c(-c2ccc(Cl)c(C(F)(F)F)c2)n1 | 16 | 4.1 | MIC [12]: 0.25 µg/mL (≈ 0.612 µM); IC50 [3]: 65 µM
